Laboratory results from patent US20230065953A1, “NOVEL HETEROARYL-TRIAZOLE COMPOUNDS AS PESTICIDES” (Bayer Aktiengesellschaft, priority 2019, published 2023).

Experiments:
Assay type in all cases: in vivo
[1] = system: adult unfed cat fleas (Ctenocephalides felis); experiment: Ctenocephalides felis oral test; conditions: 48 h
How it was run: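 About 20 adult unfed fleas fed through parafilm on cattle blood containing compound (DMSO stock diluted in blood), blood held at 37 °C and fleas at room temperature. Mortality (%) scored after 2 days.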

[2] = system: adult mosquitoes Aedes aegypti strain MONHEIM; experiment: Aedes aegypti test (AEDSAE surface treatment & contact assay); conditions: 24 hours after contact, read-out: efficacy (mortality); for mortality at 20 mg/m2: surface concentration 20 mg/m^2, 30 min exposure
How it was run: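 Test compound in acetone (2 mg/ml) with 2000 ppm rapeseed oil methyl ester was dried onto a glazed tile. Adult Aedes aegypti MONHEIM were exposed to the treated surface for 30 minutes. Percent mortality was scored 24 hours after contact.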

[3] = system: cattle ticks (Rhipicephalus microplus) strain Parkhurst, SP-resistant; experiment: Rhipicephalus (Boophilus) microplus dip test; conditions: 100 ppm, egg deposition after 7 days
Description: Rhipicephalus (Boophilus) Microplus—Dip Test
Test animal: cattle ticks (Rhipicephalus microplus) strain Parkhurst, SP-resistant
Solvent: dimethyl sulfoxide
To produce a suitable preparation of active compound, 10 mg of active compound are dissolved in 0.5 mL solvent, and the concentrate is diluted with water to the desired concentration.
This compound solution is pipetted into tubes. 8-10 engorged, adult, female cattle ticks (Rhipicephalus microplus) are placed in perforated tubes. These tubes are immersed in the aqueous compound solution until the ticks are completely moistened. After the liquid has drained off, the ticks are transferred to a filter paper in a plastic tray and stored in a climate chamber.
After 7 days egg deposition of fertile eggs is monitored. Eggs where fertility is not visible are stored in a climate chamber till hatching after about 42 days. An efficacy of 100% means all eggs are infertile; 0% means all eggs are fertile.

[4] = system: adult brown dog ticks (Rhipicephalus sanguineus); experiment: Rhipicephalus sanguineus in-vitro contact test with adult brown dog ticks; conditions: 5 μg/cm^2 (=500 g/ha), after 48 hours, read-out: efficacy (ticks dead or moribund)
How it was run: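 Read-out: % efficacy as dead or moribund ticks, judged 48 h after exposure by failure to climb away from a 45-50° C heating plate within 5 min. Tubes were coated with acetone solution (900 ppm = 5 μg/cm^2 surface dose) and held 5-10 adults each at room temperature.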

[5] = system: adult engorged female ticks (Rhipicephalus microplus); experiment: Rhipicephalus (Boophilus) microplus injection test; conditions: 168 h, 4 μg/animal, egg deposition after 7 days, read-out: efficacy (infertile eggs)
How it was run: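 Five adult engorged female ticks each injected into the abdomen with 1 μL of compound in DMSO, then kept in a climate chamber. Fertile egg deposition assessed after 7 days, with unclear eggs held until hatching around 42 days; efficacy 100% means all eggs infertile, 0% all fertile.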

[6] = system: Rhipicephalus microplus larvae (strain Parkhurst, resistant against synthetic pyrethroids); experiment: Rhipicephalus (Boophilus) microplus in-vitro contact test, larval cattle tick; conditions: 5 μg/cm^2 (=500 g/ha), after 48 hours, read-out: efficacy (larvae dead or moribund)
How it was run: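 Efficacy is read at 48 h from negative geotactic behaviour after larvae are patted to the tube bottom, expressed as percentage dead or moribund. Larvae (20-50) sit in glass tubes whose walls carry an evaporated acetone film of compound (900 ppm corresponds to 5 μg/cm^2), kept at 27° C., 85% relative humidity.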

[7] = system: adult flies Musca domestica strain WHO-N; experiment: Musca domestica test (MUSCDO surface treatment & contact assay); conditions: 24 hours after contact, read-out: efficacy (mortality); for mortality at 4 mg/m2: surface concentration 4 mg/m^2, 30 min exposure; for mortality at 20 mg/m2: surface concentration 20 mg/m^2, 30 min exposure
How it was run: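 Percent kill read 24 h post-contact, after adult flies (strain WHO-N) spent 30 min on a glazed tile treated with test solution (acetone, 2 mg/ml, plus 2000 ppm rapeseed oil methyl ester) and dried.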

[8] = system: green peach aphid (Myzus persicae); experiment: Myzus persicae oral test; conditions: 120 h
How it was run: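 Compound was dissolved in acetone, diluted with water and mixed into IPL41 insect medium with sugar under a parafilm seal. A mixed aphid population fed through the parafilm, and mortality (%) was scored after 5 days.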

[9] = system: fall armyworm larvae (Spodoptera frugiperda); experiment: Spodoptera frugiperda spray test (maize leaf sections); conditions: 168 h
How it was run: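 Percent kill of Spodoptera frugiperda caterpillars read at day 7. Larvae placed on dried Zea mays leaf pieces previously sprayed with test preparation, made from acetone plus DMF and diluted with emulsifier-containing water (1000 ppm).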

[10] = system: larvae of the banded cucumber beetle (Diabrotica balteata); experiment: Diabrotica balteata spray test; conditions: 168 h, 100 g/ha (=32 μg/well), wheat seeds, after 7 days, read-out: efficacy (seedling growth)
How it was run: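 Efficacy in % was read 7 days after infesting with 10-20 larvae per unit. Before infestation, 1-day-germinated wheat seedlings (5 per well) were sprayed with the active ingredient, formulated in acetone and dimethylformamide plus emulsifier and diluted with water containing emulsifier.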

[11] = system: adult mosquitoes Anopheles funestus strain FUMOZ-R; experiment: Anopheles funestus test (ANPHFU surface treatment & contact assay); conditions: 24 hours after contact, read-out: efficacy (mortality)
Description: Anopheles funestus Test (ANPHFU Surface Treatment & Contact Assay) • Solvent: Aceton+2000 ppm rapeseed oil methyl ester (RME)
In order to produce a sufficient, active ingredient containing solution it is necessary to solve the test compound in the solvent-mix (acetone at 2 mg/ml/RME 2000 ppm). This solution is pipetted onto a glazed tile and after evaporation of the acetone, adult mosquitoes of the species Anopheles funestus strain FUMOZ-R (Hunt et al., Med. Vet. Entomol. 2005 September; 19(3): 271-275) are placed onto the dried surface. The exposure time is 30 minutes.
Mortality in percent (%) is determined 24 hours after contact of the insects to the treated surface. 100% mortality means that all tested insects are dead, whereas 0% means that no insect died.

[12] = system: green peach aphid (Myzus persicae); experiment: Myzus persicae spray test; conditions: foliar, 120 h, Chinese cabbage leaf disks, after 5 days
How it was run: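 Percent mortality read 5 days after spraying, where 100% is total kill and 0% none. The spray contained compound in acetone plus dimethylformamide, diluted with 1000 ppm emulsifier water. It was applied to Brassica pekinensis leaf disks carrying mixed-instar green peach aphids.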

[13] = system: fall armyworm larvae (Spodoptera frugiperda); experiment: Spodoptera frugiperda spray test (SPODFR, maize leaf sections), comparison; conditions: 168 h, 7 dat, read-out: % Efficacy
Description: Spodoptera fruaiperda—Spray Test (SPODFR) • Solvent: 78.0 parts by weight acetone • 1.5 parts by weight dimethylformamide • Emulsifier: alkylarylpolyglycol ether
(§1) To produce a suitable preparation of active compound, 1 part by weight of active compound is mixed with the stated amount of solvents and is diluted with water, containing an emulsifier concentration of 1000 ppm, to the desired concentration. Further test concentrations are prepared by dilution with emulsifier containing water.
Maize (Zea mays) leaf sections are sprayed with a preparation of the active ingredient of the desired concentration. Once dry, the leaf sections are infested with fall armyworm larvae (Spodoptera frugiperda).
After the specified period of time, mortality in % is determined in comparison to the untreated control plant. 100% means all caterpillars have been killed and 0% means none of the caterpillars have been killed.

[14] = system: larvae of the southern green stink bug (Nezara viridula); experiment: Nezara viridula spray test (NEZAVI), comparison; conditions: 96 h, 500 g ai/ha, 4 dat, read-out: % Efficacy
Description: Nezara viridula—Spray Test (NEZAVI) • Solvent: 78.0 parts by weight of acetone • 1.5 parts by weight of dimethylformamide • Emulsifier: alkylarylpolyglycol ether
as §1, with “solvent,” for “solvents”, “and the concentrate” for “and”
Barley plants (Hordeum vulgare) are sprayed with a test solution containing the desired concentration of the active ingredient and are infested with larvae of the southern green stink bug (Nezara viridula).
After the specified period of time, mortality in % is determined in comparison to the untreated control plant. 100% means all the stink bugs have been killed; 0% means none of the stink bugs have been killed.

[15] = system: larvae of the southern green stink bug (Nezara viridula); experiment: Nezara viridula spray test; conditions: in Hordeum vulgare, 96 h
How it was run: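 Mortality (%) of stink bug larvae on treated barley (Hordeum vulgare) was scored 4 days after infestation. Test solutions came from an acetone/DMF concentrate diluted with water containing 1000 ppm emulsifier and were sprayed onto plants before larvae were added.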

[16] = system: brown planthopper (Nilaparvata lugens); experiment: Nilaparvata lugens spray test; conditions: 96 h, rice plants, after 4 days
Description: Nilaparvata lugens—Spray Test • Solvent: 78.0 parts by weight of acetone • 1.5 parts by weight of dimethylformamide • Emulsifier: alkylarylpolyglycol ether
as §1
Rice plants (Oryza sativa) are sprayed with a preparation of the active ingredient of the desired concentration and the plants are infested with the brown planthopper (Nilaparvata lugens).
After 4 days mortality in % is determined. 100% means all planthoppers have been killed and 0% means none of the planthoppers have been killed.

[17] = system: adult cat fleas (Ctenocephalides felis); experiment: Ctenocephalides felis in-vitro contact test, adult cat flea; conditions: 5 μg/cm^2 (=500 g/ha), after 48 hours
How it was run: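 After 48 h of room-temperature exposure in tubes whose walls carried dried compound residue (5 μg/cm^2, from 900 ppm acetone solution), adult cat fleas (5-10 per tube) were heat-challenged at 45-50° C up to 5 min. Fleas unable to climb away were counted dead or moribund, expressed as % efficacy.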

[18] = surface concentration 4 mg/m^2, 30 min exposure

Cc1nc([C@H](C)NC(=O)c2cc(Br)cc(C(F)(F)F)c2)n(-c2ncc(C#N)s2)n1 [I-14]
100%: mortality at 100 ppm [1] | efficacy (infertile eggs) [3] | pest or weed control at 5 µg/cm2, 500 g/ha [4] | pest or weed control at 0.004 mg [5] | pest or weed control at 5 µg/cm2 [6] | mortality at 4 ppm [8] | mortality at 100 g/ha [9] | pest or weed control at 32 µg/disc, 100 g/ha [10]
80 to 100%: mortality at 20 mg/m2 [2] | mortality at 20 mg/m2 [7]
90 to 100%: mortality at 4 mg/m2 [7]

CC(NC(=O)c1cc(OC(F)F)cc(OC(F)F)c1)c1ncnn1-c1ncc(C#N)s1 (stereo not shown) [I-31]
80 to 100%: mortality at 4 mg/m2 [2, 18] | mortality at 20 mg/m2 [2] | mortality at 4 mg/m2 [11, 18] | mortality at 20 mg/m2 [7]
90%: mortality at 100 g/ha [12]
90 to 100%: mortality at 4 mg/m2 [7]
100%: mortality at 100 ppm [1] | pest or weed control at 5 µg/cm2, 500 g/ha [4] | pest or weed control at 0.004 mg [5] | pest or weed control at 5 µg/cm2 [6] | mortality at 4 ppm [8] | mortality at 100 g/ha [9] | pest or weed control at 32 µg/disc, 100 g/ha [10]

C[C@H](NC(=O)c1cc(Cl)cc(S(=O)(=O)C(F)(F)F)c1)c1ncnn1-c1ncc(C#N)s1 [I-60]
100%: larval mortality at 20 g/ha ([13]; 20 g ai/ha) | larval mortality at 100 g/ha ([13]; 100 g ai/ha) | stink bug mortality at 500 g/ha [14] | mortality at 500 g/ha [15] | mortality at 100 g/ha [9] | pest or weed control at 32 µg/disc, 100 g/ha [10]

C[C@H](NC(=O)c1cc(C(F)(F)F)cc(C(F)(F)F)c1)c1ncnn1-c1ncc(C(=O)N(C)C)s1 [I-64]
90 to 100%: mortality at 4 mg/m2 [7]
90%: mortality at 100 g/ha ([16]; 100 g/ha) | mortality at 500 g/ha ([16]; 500 g/ha)
80 to 100%: mortality at 20 mg/m2 [2] | mortality at 20 mg/m2 ([11]; surface concentration 20 mg/m^2, 30 min exposure) | mortality at 20 mg/m2 [7]
100%: pest or weed control at 5 µg/cm2, 500 g/ha [4] | pest or weed control at 5 µg/cm2 [6] | efficacy (fleas dead or moribund) [17] | mortality at 500 g/ha [15] | mortality at 100 g/ha [9] | mortality at 100 g/ha [12] | pest or weed control at 32 µg/disc, 100 g/ha [10]

C[C@H](NC(=O)c1cc(Cl)cc(S(=O)(=O)C(F)(F)F)c1)c1ncnn1-c1nccs1 [I-077, reference compound]
0%: stink bug mortality at 500 g/ha [14]
67%: Emax at 100 g/ha ([13]; 100 g ai/ha)
33%: Emax at 20 g/ha ([13]; 20 g ai/ha)
